Assay results from patent publication US11912682B2, “Isoindolinone compounds” (Monte Rosa Therapeutics, Inc., priority 2021, dated 2024).
Like-named read-outs stand apart in the source and are kept apart here.

Assays:
GSPT1 = GSPT1 (Homo sapiens (Human), UniProt P15170+Q96SW2); assay: selectivity by Western blot in MM1S cells, GSPT1; format: cell-based; details: for GSPT1 degradation: MM1S cells, 6 hours, 0.3, 3 and 30 μM
Experimental: (§1) MM1S cells were purchased from ATCC (cat. Number CRL-2974), sub-cultured in 90% RPMI 1640 with 10% FBS, supplemented with 1× P/S and incubated at 37° C., 5% CO2. Compounds were stored as 10 mM DMSO stock. For the assay, MM1S cells (3 million cells/well) were plated in 6-well plates and incubated over night. Cells were treated with respective compounds using a serial dilution: 0.3 μM, 3 μM and 30 μM as well as a vehicle only (DMSO) control for 6 hours. Media with suspension cells was subsequently transferred to 15 mL conical tubes, wells rinsed twice with ice-cold PBS and merged with cell suspension in respective 15 mL conical tube. Cells were spinned down, supernatant aspirated, pellets resuspended in ice-cold PBS and transferred to microtubes. Cells were spinned down, supernatant aspirated and pellets resuspended in 120 μL RIPA lysis buffer supplemented with protease and phosphatase inhibitors. Cell lysates were incubated on ice for 20 minutes followed by centrifugation at >20,000 xg for 5 min. Supernatants were transferred to fresh microtubes and stored at −80° C. Total protein concentration was determined using a BCA assay with a BSA standard curve and concentration of all samples was adjusted to 1 mg/mL. 25 μL 4× LDS sample buffer supplemented with 100 mM DTT was added to 75 μL sample. Samples were centrifuged (8,000 xg, 1 min) and incubated at 95° C. for 5 min followed by another centrifugation step (8,000 xg, 1 min). 20 μL of each sample was loaded on a 4-12% gel alongside a protein molecular weight marker. Gels were run in the presence of MOPS buffer at 80 Volts for 30 min, followed by 120 Volts for 1.5 h and proteins subsequently transferred onto nitrocellulose membranes at 20 Volts for 7 min using an iBlot2 Gel Transfer Device. Membranes were then cut horizontally into two pieces, covering 80-50 kDa and 50-25 kDa. Blocking the membranes was performed by gently shaking in 5% (w/v) skim milk in TSB-T for 1 hr at room temperature. All primary antibodies were used at a 1/1000 in 5% (w/v) BSA dissolved in TBST and incubated with membranes over night at 4° C. Anti-IKZF1 (Ikaros; D6N9Y; 14859S), anti-IKZF3 (Aiolos; D1C1E; 15103S) antibodies were purchased from Cell Signalling Technology, anti-ZFP91 antibody from Bethyl laboratories, anti-GSPT1 from Sigma Aldrich (HPA052488) and anti CK1alpha from AbCam (ab206652). After three washes with 1× TBST for 5 min, HRP-coupled secondary antibodies diluted in 5% (w/v) BSA/TBST (Goat Anti-Rb IgG, dil. 1/10,000; Goat Anti-Mouse IgG, dil. 1/5000) were added for 1 hr at room temperature. After three washes with 1× TBST (5 minutes each), membranes were incubated with ECL reagent for 1 min at room temperature. Chemiluminescence signals were then detected using a LAS-4000 system with default settings and signals quantified using Image Studio Lite software (version 5.2). Membrane parts previously incubated with antibody against CK1alpha were stripped off antibodies by incubating with stripping buffer for 30 minutes followed by three washed with TBST (5 min each), blocking with 5% (w/v) skim milk for 1 hr, and incubation with primary antibody against GAPDH overnight at 4° C. Subsequent washes, incubation with secondary antibody and signal acquisition were performed as described above.

IKZF1 (Ikaros) = IKZF1 (Ikaros) (Homo sapiens (Human), UniProt Q13422); assay: selectivity by Western blot in MM1S cells, IKZF1; format: cell-based; set-up: key to IKZF1 degradation: A represents a no degradation observed at 30 μM; B represents trace degradation at 30 μM (below 20%); C represents weak degradation at 30 μM (below 50%); D represents degradation at 30 μM (>90%); E represents degradation at 3 μM (>90%); F represents degradation at 0.3 μM (>90%); details: for IKZF1 degradation: MM1S cells, 6 hours, 0.3, 3 and 30 μM
Experimental: as §1

[1] = target: Full length wild-type cereblon CRBN (Homo sapiens (Human), UniProt Q96SW2); assay: fluorescence polarization (FP) assay, cereblon binding
Summary of the method: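 Full-length wild-type CRBN (80.0 nM as dispensed) preincubated 30 min at room temperature with compound in HEPES pH 8.0, NaCl, TCEP, 0.05% Tween 20.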

CK1alpha = CK1alpha (Homo sapiens (Human), UniProt P48729); assay: selectivity by Western blot in MM1S cells, CK1alpha; format: cell-based; set-up: key to CK1alpha degradation: A represents a no degradation observed at 30 μM; B represents trace degradation at 30 μM (below 20%); C represents weak degradation at 30 μM (below 50%); D represents degradation at 30 μM (>90%); E represents degradation at 3 μM (>90%); F represents degradation at 0.3 μM (>90%); details: for CK1alpha degradation: MM1S cells, 6 hours, 0.3, 3 and 30 μM
Experimental: as §1

[2] = highest concentration tested of 30 μM

Chain of CK1alpha (P48729 whole entry, looked up): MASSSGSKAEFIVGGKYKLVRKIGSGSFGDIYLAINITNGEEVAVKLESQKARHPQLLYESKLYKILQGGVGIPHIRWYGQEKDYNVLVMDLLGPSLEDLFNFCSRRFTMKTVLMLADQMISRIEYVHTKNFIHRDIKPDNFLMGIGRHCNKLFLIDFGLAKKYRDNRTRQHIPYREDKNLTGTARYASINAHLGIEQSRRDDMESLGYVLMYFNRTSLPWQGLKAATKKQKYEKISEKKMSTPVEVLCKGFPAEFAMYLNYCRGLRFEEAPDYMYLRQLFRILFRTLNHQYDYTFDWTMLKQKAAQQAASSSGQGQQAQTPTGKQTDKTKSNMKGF
Chain of GSPT1 (P15170 whole entry, looked up): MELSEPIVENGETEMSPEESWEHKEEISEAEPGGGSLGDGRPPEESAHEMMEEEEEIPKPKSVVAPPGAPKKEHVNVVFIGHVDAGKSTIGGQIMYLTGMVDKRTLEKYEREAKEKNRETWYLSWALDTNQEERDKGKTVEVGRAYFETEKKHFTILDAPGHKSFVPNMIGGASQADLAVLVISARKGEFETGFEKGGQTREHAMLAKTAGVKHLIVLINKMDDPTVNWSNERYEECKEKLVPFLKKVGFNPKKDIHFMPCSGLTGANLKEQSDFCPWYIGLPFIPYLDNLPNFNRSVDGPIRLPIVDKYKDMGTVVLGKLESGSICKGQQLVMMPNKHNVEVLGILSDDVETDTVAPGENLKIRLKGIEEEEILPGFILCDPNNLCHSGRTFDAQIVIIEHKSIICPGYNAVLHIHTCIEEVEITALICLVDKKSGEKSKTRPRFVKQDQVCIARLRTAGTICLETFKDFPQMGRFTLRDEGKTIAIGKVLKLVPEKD
Chain of GSPT1 (Q96SW2 whole entry, looked up): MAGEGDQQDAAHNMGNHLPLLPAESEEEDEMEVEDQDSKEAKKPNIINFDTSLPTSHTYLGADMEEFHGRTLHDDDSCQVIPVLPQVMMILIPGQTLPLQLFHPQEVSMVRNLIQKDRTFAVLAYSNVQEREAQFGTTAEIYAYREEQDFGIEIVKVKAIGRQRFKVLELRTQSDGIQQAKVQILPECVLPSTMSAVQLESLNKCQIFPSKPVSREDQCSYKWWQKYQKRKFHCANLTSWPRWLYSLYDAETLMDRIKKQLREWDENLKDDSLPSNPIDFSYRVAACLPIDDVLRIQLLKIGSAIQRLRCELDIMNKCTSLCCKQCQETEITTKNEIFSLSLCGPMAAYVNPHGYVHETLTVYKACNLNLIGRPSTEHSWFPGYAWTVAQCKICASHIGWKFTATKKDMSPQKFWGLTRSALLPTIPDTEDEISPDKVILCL
Chain of GSPT1 (Q16531 whole entry partner, looked up): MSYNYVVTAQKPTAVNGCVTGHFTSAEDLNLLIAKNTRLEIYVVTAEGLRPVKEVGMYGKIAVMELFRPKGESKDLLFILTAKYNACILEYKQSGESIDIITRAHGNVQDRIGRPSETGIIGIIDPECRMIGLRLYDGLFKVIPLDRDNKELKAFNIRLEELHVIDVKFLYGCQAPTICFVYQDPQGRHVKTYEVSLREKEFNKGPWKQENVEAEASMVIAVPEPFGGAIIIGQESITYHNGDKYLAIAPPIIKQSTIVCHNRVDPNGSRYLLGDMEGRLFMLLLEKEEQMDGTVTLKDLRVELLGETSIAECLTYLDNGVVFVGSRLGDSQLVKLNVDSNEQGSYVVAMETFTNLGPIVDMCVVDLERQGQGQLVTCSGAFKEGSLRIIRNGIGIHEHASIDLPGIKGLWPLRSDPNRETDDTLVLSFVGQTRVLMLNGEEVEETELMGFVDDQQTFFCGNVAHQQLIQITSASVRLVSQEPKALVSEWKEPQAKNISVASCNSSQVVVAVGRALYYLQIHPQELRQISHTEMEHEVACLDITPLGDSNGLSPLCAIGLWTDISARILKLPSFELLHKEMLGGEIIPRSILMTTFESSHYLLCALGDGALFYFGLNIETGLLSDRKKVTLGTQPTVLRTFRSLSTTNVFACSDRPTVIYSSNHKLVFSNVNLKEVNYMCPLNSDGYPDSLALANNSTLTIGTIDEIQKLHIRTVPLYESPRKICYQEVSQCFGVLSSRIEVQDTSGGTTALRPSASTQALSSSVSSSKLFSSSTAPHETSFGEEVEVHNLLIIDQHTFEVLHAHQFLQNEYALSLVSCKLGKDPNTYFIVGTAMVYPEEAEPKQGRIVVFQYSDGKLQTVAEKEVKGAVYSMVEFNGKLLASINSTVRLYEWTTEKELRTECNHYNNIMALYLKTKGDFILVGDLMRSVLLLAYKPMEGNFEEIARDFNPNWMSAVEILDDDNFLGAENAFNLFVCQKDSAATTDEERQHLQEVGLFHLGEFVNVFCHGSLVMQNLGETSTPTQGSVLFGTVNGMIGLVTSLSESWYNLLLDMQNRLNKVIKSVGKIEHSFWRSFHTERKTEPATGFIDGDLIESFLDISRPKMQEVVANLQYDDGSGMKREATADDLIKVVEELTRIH
Chain of Full length wild-type cereblon CRBN (Q96SW2 whole entry): as the sequence (Q96SW2 whole entry, looked up) above
Chain of IKZF1 (Ikaros) (Q13422 whole entry, looked up): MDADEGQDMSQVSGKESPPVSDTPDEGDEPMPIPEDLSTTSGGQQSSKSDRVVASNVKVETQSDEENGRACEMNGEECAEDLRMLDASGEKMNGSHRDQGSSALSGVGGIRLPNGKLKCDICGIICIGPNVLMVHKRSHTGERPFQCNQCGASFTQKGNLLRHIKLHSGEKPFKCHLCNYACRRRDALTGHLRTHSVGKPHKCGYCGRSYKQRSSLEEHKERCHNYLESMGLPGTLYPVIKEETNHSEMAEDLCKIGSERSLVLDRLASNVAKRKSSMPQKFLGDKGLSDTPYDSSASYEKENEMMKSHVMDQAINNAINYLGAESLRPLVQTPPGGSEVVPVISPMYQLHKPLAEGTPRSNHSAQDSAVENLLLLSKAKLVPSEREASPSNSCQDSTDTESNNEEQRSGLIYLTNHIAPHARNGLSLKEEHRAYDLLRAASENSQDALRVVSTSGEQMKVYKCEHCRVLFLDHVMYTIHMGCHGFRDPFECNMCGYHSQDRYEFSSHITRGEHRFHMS

Structure (SMILES) | GSPT1 degradation (GSPT1) | IKZF1 degradation (IKZF1 (Ikaros)) | IC50 ([1]; read-out: IC50 value) [nM] | CK1alpha degradation (CK1alpha) | IC50 ([1]; read-out: rFP IC50) [nM] | GSPT1 degradation (FIG. 1A) (GSPT1; cells treated at 0.3 μM) | IKZF1 degradation (FIG. 1A) (IKZF1 (Ikaros); [2]) | CK1alpha degradation (FIG. 1A) (CK1alpha; [2])
Cc1ncc(NC(=O)OCc2ccc3c(c2)C(=O)N(C2CCC(=O)NC2=O)C3)cc1Cl (stereo not shown) [Compound 6] | F (F represents degradation at 0.3 μM (>90%)) | A | < 1100 | A |  |  |  | 
O=C1CCC(N2Cc3ccc(COC(=O)Nc4ccc(N5CCCCC5)nc4)cc3C2=O)C(=O)N1 (stereo not shown) [Compound 15] | F (F represents degradation at 0.3 μM (>90%)) | A | < 1100 | C (C represents weak degradation at 30 μM (below 50%)) |  |  |  | 
CC(C)(C)c1ccc(NC(=O)OCc2ccc3c(c2)C(=O)N(C2CCC(=O)NC2=O)C3)cn1 (stereo not shown) [Compound 43] | F (F represents degradation at 0.3 μM (>90%)) | A |  | C (C represents weak degradation at 30 μM (below 50%)) | > 1700 |  |  | 
O=C1CCC(N2Cc3ccc(COC(=O)Nc4ccc(-c5ccccc5)nc4)cc3C2=O)C(=O)N1 (stereo not shown) [Compound 42] | F (F represents degradation at 0.3 μM (>90%)) | A |  | B (B represents trace degradation at 30 μM (below 20%)) | > 1700 |  |  | 
Cc1ccc(NC(=O)OCc2ccc3c(c2)C(=O)N(C2CCC(=O)NC2=O)C3)cc1Cl (stereo not shown) [Compound 10] | D (D represents degradation at 30 μM (>90%)) | A |  | B (B represents trace degradation at 30 μM (below 20%)) |  | complete GSPT1 degradation | none of the known the substrates IKZF1, IKZF3, SALL4, CK1alpha was degraded | none of the known the substrates IKZF1, IKZF3, SALL4, CK1alpha was degraded
